Results reported in patent US11236083B2, “Compounds and pharmaceutical compositions for modulating SGK activity, and methods thereof” (NEW ERA PHARMA, INC., priority 2016, dated 2022).
Where two headings read alike, the source gives them in different places.

How the values were obtained:
hERG channels = target: T1, hERG channels (Homo sapiens, UniProt Q12809); assay: Qpatch hERG assay (automated patch clamp, whole-cell tail current); format: cell-based; details: for IC50: CHO cell line stably expressing hERG channels, highest test concentration 30 μM
T1 construct: expressed in transfected cells
Protocol: • Assay platform & method: Automated patch clamp (Qpatch-48) • Cell source: CHO cell line stably expressing hERG channels • Measured parameter: Whole-cell tail current of hERG channels • Test concentration: 6 concentrations (30, 10, 3, 1, 0.3, 0.1 μM)
Example: Qpatch hERG Assay

Sgk1 = target: T2, Sgk1 (Homo sapiens, UniProt O00141); assay: Enzyme based assay for SGK1 (biotinylated Akt Substrates-2 peptide, Eu3+ Cryptate/XL665 detection); format: biochemical
T2 sequence (O00141 1-431): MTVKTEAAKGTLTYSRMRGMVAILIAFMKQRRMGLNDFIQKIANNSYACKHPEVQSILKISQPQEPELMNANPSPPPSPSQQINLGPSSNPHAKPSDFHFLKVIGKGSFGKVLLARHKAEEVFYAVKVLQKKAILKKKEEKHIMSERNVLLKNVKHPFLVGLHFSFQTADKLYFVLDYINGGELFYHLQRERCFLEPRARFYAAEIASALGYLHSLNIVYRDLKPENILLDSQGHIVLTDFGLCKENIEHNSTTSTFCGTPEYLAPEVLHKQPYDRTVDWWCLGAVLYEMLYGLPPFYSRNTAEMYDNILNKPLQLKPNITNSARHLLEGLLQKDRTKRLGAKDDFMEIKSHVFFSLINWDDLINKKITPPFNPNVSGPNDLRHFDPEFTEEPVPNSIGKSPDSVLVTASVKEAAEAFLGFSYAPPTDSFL
Protocol: (§1) 1. Enzyme Based Assays for SGK1, SGK2, SGK3, and Akt1
(§2) The kinase enzymatic reaction is carried out with a biotinylated Akt Substrates-2 peptide substrate. The phosphorylated substrate is then detected using a specific anti-phospho peptide antibody which is coupled with Eu^3+ Cryptate and XL665 conjugated with streptavidin.
(§3) Exemplary Assay Conditions
(§4) • Enzyme: ˜0.1 nM • Substrate: 0.2 μM • ATP: 50 μM and 1 mM • Mg^2+: 10 mM • Reaction time: 60 min with 50 μM ATP and 30 min with 1 mM ATP • SA-XL to Biotin: 1:10
(§5) Detailed Steps • 1. prepare the enzyme and substrate solution with the buffer from Cisbio • 2. add the enzyme and substrate solution to the diluted compound plate • 3. transfer 5 μL of compound, enzyme, and substrate mixture to an 384-well assay plate • 4. add 5 μL ATP (with Mg^2+) solution to initiate the reaction • 5. after certain time, add 10 μL of stop solution containing SA-XL and specific antibody • 6. read the plate after 2 h incubation at rt • 7. process the data using prizm software (Exemplary results are shown in FIG. 1.) 2. PK Studies Protocol

Sgk2 = target: T3, Sgk2 (Homo sapiens, UniProt Q9HBY8); assay: Enzyme based assay for SGK2 (biotinylated Akt Substrates-2 peptide, Eu3+ Cryptate/XL665 detection); format: biochemical
T3 sequence (Q9HBY8 1-367): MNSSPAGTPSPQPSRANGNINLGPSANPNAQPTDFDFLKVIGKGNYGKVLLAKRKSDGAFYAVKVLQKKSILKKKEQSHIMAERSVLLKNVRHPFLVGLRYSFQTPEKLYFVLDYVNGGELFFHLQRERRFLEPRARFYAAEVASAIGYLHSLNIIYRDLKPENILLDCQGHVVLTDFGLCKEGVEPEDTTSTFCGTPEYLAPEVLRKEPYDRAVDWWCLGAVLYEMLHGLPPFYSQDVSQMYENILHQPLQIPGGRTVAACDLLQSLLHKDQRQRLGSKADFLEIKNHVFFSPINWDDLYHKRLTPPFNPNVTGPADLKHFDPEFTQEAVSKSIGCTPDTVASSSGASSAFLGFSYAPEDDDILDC
Protocol: as §1, §2, §3, §4, §5

HeLa = HeLa cell testing (Table 2); format: cell-based; details: Homo sapiens; HeLa cells
293T_O = 293T_O cell testing (Table 2); format: cell-based; details: 293T_O cells
293T = 293T cell testing (Table 2); format: cell-based; details: Homo sapiens, HEK-293T; 293T cells
[1] = 50 μM ATP, read-out: Sgk1 (50 μM ATP)
[2] = 1 mM ATP, read-out: Sgk1 (1 mM ATP)
[3] = 50 μM ATP, read-out: Sgk2 (50 μM ATP)
[4] = 1 mM ATP, read-out: Sgk2 (1 mM ATP)

T1 sequence (Q12809 whole entry): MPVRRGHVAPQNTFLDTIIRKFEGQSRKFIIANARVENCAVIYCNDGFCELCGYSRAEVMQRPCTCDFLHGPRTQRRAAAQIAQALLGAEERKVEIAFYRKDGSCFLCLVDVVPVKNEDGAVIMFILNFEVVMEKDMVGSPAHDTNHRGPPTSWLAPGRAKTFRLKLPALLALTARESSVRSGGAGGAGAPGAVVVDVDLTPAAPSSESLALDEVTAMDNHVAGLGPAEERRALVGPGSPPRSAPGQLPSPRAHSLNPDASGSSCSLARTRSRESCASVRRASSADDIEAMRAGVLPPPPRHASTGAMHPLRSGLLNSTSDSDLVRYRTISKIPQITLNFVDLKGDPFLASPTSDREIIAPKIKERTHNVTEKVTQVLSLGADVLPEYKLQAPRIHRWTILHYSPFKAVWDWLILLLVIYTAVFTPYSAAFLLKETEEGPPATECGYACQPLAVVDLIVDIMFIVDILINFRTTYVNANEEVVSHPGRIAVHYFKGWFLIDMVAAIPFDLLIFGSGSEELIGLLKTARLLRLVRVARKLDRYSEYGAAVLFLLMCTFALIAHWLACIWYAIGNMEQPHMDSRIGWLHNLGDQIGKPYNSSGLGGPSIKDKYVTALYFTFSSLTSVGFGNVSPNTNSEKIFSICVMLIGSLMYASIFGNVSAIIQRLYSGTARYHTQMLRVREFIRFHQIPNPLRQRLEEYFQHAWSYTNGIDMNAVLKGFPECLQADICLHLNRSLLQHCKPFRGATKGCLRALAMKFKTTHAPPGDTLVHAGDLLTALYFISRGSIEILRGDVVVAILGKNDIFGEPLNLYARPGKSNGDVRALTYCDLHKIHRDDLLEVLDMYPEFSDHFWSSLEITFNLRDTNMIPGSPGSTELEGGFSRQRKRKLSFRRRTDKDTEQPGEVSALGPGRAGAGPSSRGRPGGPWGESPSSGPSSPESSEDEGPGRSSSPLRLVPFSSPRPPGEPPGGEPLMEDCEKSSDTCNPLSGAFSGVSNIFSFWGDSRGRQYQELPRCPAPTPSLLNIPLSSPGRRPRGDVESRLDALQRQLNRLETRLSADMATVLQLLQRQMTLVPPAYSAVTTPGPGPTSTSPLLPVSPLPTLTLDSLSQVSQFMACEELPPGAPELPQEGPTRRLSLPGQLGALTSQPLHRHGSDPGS

Compound	IC50 (hERG channels) [nM]	IC50 (Sgk1; [1]) [nM]	IC50 (Sgk1; [2]) [nM]	IC50 (Sgk2; [3]) [nM]	IC50 (Sgk2; [4]) [nM]	IC50 (HeLa) [nM]	IC50 (293T_O) [nM]	IC50 (293T) [nM]	Fitting curve Hillslope (hERG channels; Qpatch hERG concentration-response fit)
COc1ccc(F)c(S(=O)(=O)Nc2ccc(-c3cc(OC)c4c(N)n[nH]c4c3)cc2)c1 [C, N-(4-(3-amino-4-methoxy-1H-indazol-6-yl)-phenyl)-2-fluoro-5-methoxybenzenesulfonamide]	> 30000	–	–	–	–	–	–	–	–
COc1ccc(Cl)c(S(=O)(=O)Nc2ccc(-c3cc4[nH]ncc4c(OCC4CNCCO4)n3)cc2)c1 (centres unmarked)	–	2.5	6.9	2	15.8	11700	35100	20400	–
COc1ccc(F)c(S(=O)(=O)Nc2ccc(-c3cc(C)c4c(N)n[nH]c4n3)cc2)c1 [E, N-(4-(3-amino-4-methyl-1H-pyrazolo[3,4-b]-pyridin-6-yl)phenyl)-2-fluoro-5-methoxybenzenesulfonamide]	> 30000	–	–	–	–	–	–	–	–
COc1ccc(F)c(S(=O)(=O)Nc2ccc(-c3cc4[nH]nc(N)c4cn3)cc2)c1	–	–	> 200	5.5	54.1	68400	> 100000	94400	–
Nc1n[nH]c2cc(-c3ccc(NS(=O)(=O)c4cc(Cl)ccc4F)cc3)ccc12	–	3.2	113	6.7	68	6600	66800	27600	–
COc1ccc(Cl)c(S(=O)(=O)Nc2ccc(-c3ccc4c(N)n[nH]c4n3)cc2)c1	–	12.6	67.7	2.1	65.1	21900	45500	60700	–
COc1ccc(F)c(S(=O)(=O)Nc2ccc(-c3cc4[nH]nc(N)c4c(C)n3)cc2)c1 [D, N-(4-(3-amino-4-methyl-1H-pyrazolo[4,3-c]pyr-idin-6-yl)phenyl)-2-fluoro-5-methoxybenzenesulfonamide]	12200	–	–	–	–	–	–	–	Fitting curve Hillslope = 0.88
COc1ccc(F)c(S(=O)(=O)Nc2ccc(-c3ccc4c(N)n[nH]c4n3)cc2)c1 [J, N-(4-(3-amino-1H-pyrazolo[3,4-b]pyridin-6-yl)-phenyl)-2-fluoro-5-methoxybenzenesulfonamide]	> 30000	–	–	–	–	–	–	–	–
